Counter-ions that a name gives are not always drawn.
Key:
sickle hemoglobin (HbS) = sickle hemoglobin (HbS) (Homo sapiens, UniProt P68871+P69905, E7V); experiment: solubility assay (Csat assay) of sickle hemoglobin; type: biochemical; details: for activation at 3000 µM: 3 mM; for activation at 3000 µM / activation at 5000 µM / activation at 7000 µM / activation at 9000 µM: read-out: % increase in Solubility of HbS; for activation at 7000 µM: 7 mM; for activation at 9000 µM: 9 mM
Excerpt: One major assay for evaluating antisickling agents involves measuring their effect on increasing the concentration at which sickle hemoglobin forms a gel. This is called the solubility or Csat assay.
The solubility assay (Csat assay) measures the ability of a compound to increase solubility of sickle hemoglobin (HbS). […] The higher the ratio, the higher the activity of the compound.
In order to confirm the effectiveness of these compounds in reducing the effect of sickle cell anemia, tests were performed. The materials were tested according to the assay (Csat) developed by Hofrichter et al. (J. Hofrichter, P. D. Ross and W. A. Eaton, Proc. Natl. Acad. Sci., U.S.A. 73, 30-35, 1976). This assay involves deoxygenation of concentrated sickle hemoglobin with dithionite in the presence of different concentrations of the drugs being tested. Samples are then sealed in quartz epr tubes under anaerobic conditions and spun at about 150,000 g for about 21/2 hours at about 35° C. in an ultracentrifuge. This procedure pellets the polymerized HbS (sickle hemoglobin) to the bottom of the tubes and the supernatant (soluble HbS) is measured in the laboratory as the cyanmethemoglobulin derivative. […] Activity is reported as a ratio of the HbS solubility with the particular drug to HbS solubility with no drug, i.e. control. The higher the ratio the greater degree of activity of the drug. The numbers in parenthesis are the percent increase in solubility of HbS; again, the higher the number, the greater the activity. The results of representative compounds from the Examples are shown in Table I as typical of the compounds of the invention.

erythrocyte membranes = experiment: tests of transport across erythrocyte membranes; type: in vitro ADME
HbS = experiment: chromatographic separation, covalent binding between HbS and the agent

| activation at 3000 µM (sickle hemoglobin (HbS)) | activation at 5000 µM (sickle hemoglobin (HbS); 5 mM) | activation at 7000 µM (sickle hemoglobin (HbS)) | activation at 9000 µM (sickle hemoglobin (HbS)) | Compound | solubility ratio (Csat assay) compared with other antisickling agents, in words (sickle hemoglobin (HbS); 5 mM, sodium salt) | ability to cross the red blood cell membrane, in words (erythrocyte membranes) | covalent binding between HbS and the therapeutic agent, in words (HbS) |
| --- | --- | --- | --- | --- | --- | --- | --- |
| 13% | 18% | 26% | 35% | C=C(CC)C(=O)c1ccc(OCCCCCC(=O)O)c(Cl)c1Cl [Example 5, 6-[2,3-dichloro-4-(2-methylenebutyryl)phenoxy]hexanoic acid] |  |  |  |
| 19% | 30% | 34% | 48% | C=C(CC)C(=O)c1ccc(OC2(C(=O)O)CCC2)c(Cl)c1Cl [Example 6, 1-[2,3-dichloro-4-(2-methylenebutyryl)phenoxy]cyclobutane-1-carboxylic acid] |  |  |  |
| 18% | 37% | 46% | 51% | C=C(CCC)C(=O)c1ccc(OCCCC(=O)O)c(Cl)c1Cl [Example 3, 4-[2,3-dichloro-4-(2-methylenevaleryl)phenoxy]butyric acid] |  |  |  |
| 14% | 30% | 26% | 39% | C=C(CCC)C(=O)c1ccc(OC2(C(=O)O)CCC2)c(Cl)c1Cl [Example 7, 1-[2,3-dichloro-4-(2-methylenevaleryl)phenoxy]cyclobutane-1-carboxylic acid] |  |  |  |

More lines, now with the values behind:

| Compound | activation at 3000 µM (sickle hemoglobin (HbS)) | activation at 5000 µM (sickle hemoglobin (HbS); 5 mM) | activation at 7000 µM (sickle hemoglobin (HbS)) | activation at 9000 µM (sickle hemoglobin (HbS)) | solubility ratio (Csat assay) compared with other antisickling agents, in words (sickle hemoglobin (HbS); 5 mM, sodium salt) | ability to cross the red blood cell membrane, in words (erythrocyte membranes) | covalent binding between HbS and the therapeutic agent, in words (HbS) |
| --- | --- | --- | --- | --- | --- | --- | --- |
| C=C(CC)C(=O)c1ccc(OCCC(=O)O)c(Cl)c1Cl [Example 1, 3-[2,3-dichloro-4-(2-methylenebutyryl)phenoxy]propionic acid] | 26% | 33% | 43% | 69% |  |  |  |
| C=C(CC)C(=O)c1ccc(OCCCC(=O)O)c(Cl)c1Cl [Example 2, 4-[2,3-dichloro-4-(2-methylenebutyryl)phenoxy]butyric acid] | 22% | 27% | 37% | 46% |  |  |  |
| C=C(CC)C(=O)c1ccc(OC(C)(C)C(=O)O)c(Cl)c1Cl [Example 8, 2-[2,3-dichloro-4-(2-methylenebutyryl)phenoxy]-2-methylpropionic acid] | 11% | 21% | 41% | 53% |  |  |  |
| C=C(CC)C(=O)c1ccc(OCCCCC(=O)O)c(Cl)c1Cl [Example 4, 5-[2,3-dichloro-4-(2-methylenebutyryl)phenoxy]valeric acid] | 21% | 34% | 52% | 80% |  |  |  |
| C=C(CC)C(=O)c1ccc(OCCCC(=O)O)c(Cl)c1Cl [sodium salt of 4-[2,3-dichloro-4-(2-methylenebutyryl)phenoxy]butyric acid] |  |  |  |  | higher solubility ratio than other antisickling agents, such as, dichlorobenzyloxyacetic and p-bromobenzyloxyacetic acids | cross the red blood cell membrane and react with hemoglobin | tight covalent binding between the HbS and the therapeutic agent had occurred |

From patent US4731381A, “Method of treating a person for sickle cell anemia” (Merck & Co., Inc., priority 1986, dated 1988)
